The source of these data is patent US9353084B2, “2-amino 3,5,5-trifluoro-3,4,5,6-tetrahydropyridines as BACE1 inhibitors for treatment of Alzheimer's disease” (H. Lundbeck A/S, priority 2014, dated 2016).

Molecules are shown by their SMILES. Counter-ions that a name gives are not always drawn.

This assay deals with human BACE1 (Homo sapiens (Human), UniProt P56817). Briefly: BACE1 binding assay (SPA-based, radioligand displacement). Conditions: pH 4.5, Ki calculated from IC50. The protocol: The binding assay was performed as SPA-based assay using a biotinylated form of human BACE1 recombinantly expressed and subsequently purified from Freestyle HEK293 cells. The binding assay was run in a 50 mM sodium acetate buffer, pH 4.5 containing 50 mM NaCl and 0.03% Tween-20 in white clear bottom 384 plates (Corning #3653). 10 nM (final concentration) radioligand ([^3H]—N-((1S,2R)-1-benzyl-3-cyclopropylamino-2-hydroxy-propyl)-5-(methanesulfonyl-methyl-amino)-N—((R)-1-phenyl-ethyl)-isophthalamide) (TRQ11569 purchased from GE Healthcare) was mixed with test compound at a given concentration, 6 nM (final concentration) human BACE1 and 25 μg Streptavidin coated PVT core SPA beads (RPNQ0007, GE Healthcare Life Sciences) in a total volume of 40 μl. Several concentrations of each test compound were tested in the assay for IC50 determination. The plates were incubated for one hour at room temperature and counted in a Wallac Trilux counter. Total and non-specific binding were determined using buffer and 1 μM (final concentration) of the high affinity BACE1 reference inhibitor (S)-6-[3-chloro-5-(5-prop-1-ynyl-pyridin-3-yl)-thiophen-2-yl]-2-imino-3,6-dimethyl-tetrahydro-pyrimidin-4-one, respectively. For each test compound, a IC50 value (the concentration mediating 50% inhibition of the specific binding of the radioligand) was determined from concentration-response curve and used to calculate the Ki from the equation Ki=IC50/(1+L/Kd), where L and Kd are the final concentration of the radioligand used in the assay and the dissociation constant of the radioligand, respectively. The Kd of the radioligand was determined from saturation binding experiments.
human BACE1, sequence (P56817 46-501): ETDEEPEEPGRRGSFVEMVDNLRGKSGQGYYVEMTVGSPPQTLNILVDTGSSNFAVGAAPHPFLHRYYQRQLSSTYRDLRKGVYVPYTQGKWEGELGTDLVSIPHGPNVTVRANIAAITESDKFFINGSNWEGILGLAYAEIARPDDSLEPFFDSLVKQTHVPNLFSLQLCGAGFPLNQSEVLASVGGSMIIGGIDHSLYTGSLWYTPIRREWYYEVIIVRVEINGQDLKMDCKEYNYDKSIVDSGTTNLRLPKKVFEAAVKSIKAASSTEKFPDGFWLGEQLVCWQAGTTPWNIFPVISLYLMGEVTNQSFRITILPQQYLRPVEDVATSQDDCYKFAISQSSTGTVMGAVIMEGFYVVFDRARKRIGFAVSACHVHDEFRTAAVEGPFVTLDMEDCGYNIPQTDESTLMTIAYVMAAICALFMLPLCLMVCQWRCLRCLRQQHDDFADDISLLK
With `Cc1csc(C(=O)Nc2ccc(F)c([C@@]3(C)N=C(N)[C@](C)(F)CC3(F)F)c2)n1` [Compound 27, N-(3-((2R,5R)-6-amino-3,3,5-trifluoro-2,5-dimethyl-2,3,4,5-tetrahydropyridin-2-yl)-4-fluorophenyl)-4-methylthiazole-2-carboxamide], the inhibition constant (Ki) is 140 nM. Take `Cn1cc(Br)nc1C(=O)Nc1ccc(F)c([C@@]2(C)N=C(N)[C@@](C)(F)CC2(F)F)c1` [Compound 9, N-(3-((2R,5S)-6-amino-3,3,5-trifluoro-2,5-dimethyl-2,3,4,5-tetrahydropyridin-2-yl)-4-fluorophenyl)-4-bromo-1-methyl-1H-imidazole-2-carboxamide]: the Ki was 100 nM. To `Cc1csc(C(=O)Nc2ccc(F)c([C@@]3(C)N=C(N)[C@@](C)(F)CC3(F)F)c2)n1` [Compound 10, N-(3-((2R,5S)-6-amino-3,3,5-trifluoro-2,5-dimethyl-2,3,4,5-tetrahydropyridin-2-yl)-4-fluorophenyl)-4-methylthiazole-2-carboxamide] belongs 44 nM; to `C[C@]1(F)CC(F)(F)[C@@](C)(c2cc(NC(=O)c3ccc(C#N)cn3)ccc2F)N=C1N` [Compound 4, N-(3-((2R,5S)-6-amino-3,3,5-trifluoro-2,5-dimethyl-2,3,4,5-tetrahydropyridin-2-yl)-4-fluorophenyl)-5-cyanopicolinamide], 11 nM; to `Cc1nc(C(=O)Nc2ccc(F)c([C@@]3(C)N=C(N)[C@@](C)(F)CC3(F)F)c2)co1` [Compound 7, N-(3-((2R,5S)-6-amino-3,3,5-trifluoro-2,5-dimethyl-2,3,4,5-tetrahydropyridin-2-yl)-4-fluorophenyl)-2-methyloxazole-4-carboxamide], 33 nM. The same measure for `C[C@]1(F)CC(F)(F)[C@@](C)(c2cc(NC(=O)c3nc(CF)co3)ccc2F)N=C1N` [Compound 14, N-(3-((2R,5S)-6-amino-3,3,5-trifluoro-2,5-dimethyl-2,3,4,5-tetrahydropyridin-2-yl)-4-fluorophenyl)-4-(fluoromethyl)oxazole-2-carboxamide]: 37 nM; for `C[C@@]1(F)CC(F)(F)[C@@](C)(c2cc(NC(=O)c3ccc(Cl)cn3)ccc2F)N=C1N` [Compound 33, N-(3-((2R,5R)-6-amino-3,3,5-trifluoro-2,5-dimethyl-2,3,4,5-tetrahydropyridin-2-yl)-4-fluorophenyl)-5-chloropicolinamide]: 62 nM; for `C[C@]1(F)CC(F)(F)[C@@](C)(c2cc(NC(=O)c3cnc(C(F)F)cn3)ccc2F)N=C1N` [Compound 16, N-(3-((2R,5S)-6-amino-3,3,5-trifluoro-2,5-dimethyl-2,3,4,5-tetrahydropyridin-2-yl)-4-fluorophenyl)-5-(difluoromethyl)pyrazine-2-carboxamide]: 58 nM. To `C[C@]1(F)CC(F)(F)[C@@](C)(c2cc(NC(=O)c3ccc(Cl)cn3)ccc2F)N=C1N` [Compound 3, N-(3-((2R,5S)-6-amino-3,3,5-trifluoro-2,5-dimethyl-2,3,4,5-tetrahydropyridin-2-yl)-4-fluorophenyl)-5-chloropicolinamide] belongs 12 nM; to `C[C@@]1(F)CC(F)(F)[C@@](C)(c2cc(NC(=O)c3ccn(C(F)F)n3)ccc2F)N=C1N` [Compound 23, N-(3-((2R,5R)-6-amino-3,3,5-trifluoro-2,5-dimethyl-2,3,4,5-tetrahydropyridin-2-yl)-4-fluorophenyl)-1-(difluoromethyl)-1H-pyrazole-3-carboxamide], 71 nM; to `C[C@@]1(F)CC(F)(F)[C@@](C)(c2cc(NC(=O)c3ccc(C#N)cn3)ccc2F)N=C1N` [Compound 32, N-(3-((2R,5R)-6-amino-3,3,5-trifluoro-2,5-dimethyl-2,3,4,5-tetrahydropyridin-2-yl)-4-fluorophenyl)-5-cyanopicolinamide], 51 nM. For `C[C@@]1(F)CC(F)(F)[C@@](C)(c2cc(NC(=O)c3nc(CF)cs3)ccc2F)N=C1N` [Compound 31, N-(3-((2R,5R)-6-amino-3,3,5-trifluoro-2,5-dimethyl-2,3,4,5-tetrahydropyridin-2-yl)-4-fluorophenyl)-4-(fluoromethyl)thiazole-2-carboxamide], the inhibition constant (Ki) is 92 nM. For the compound `C[C@]1(F)CC(F)(F)[C@@](C)(c2cc(NC(=O)c3ccc(OC(F)F)cn3)ccc2F)N=C1N` [Compound 45, N-(3-((2R,5S)-6-amino-3,3,5-trifluoro-2,5-dimethyl-2,3,4,5-tetrahydropyridin-2-yl)-4-fluorophenyl)-5-(difluoromethoxy)picolinamide], the Ki was 14 nM. To `[2H]C([2H])([2H])Oc1ccc(C(=O)Nc2ccc(F)c([C@@]3(C)N=C(N)[C@@](C)(F)CC3(F)F)c2)nc1` [Compound 48] belongs 14 nM; to `C[C@@]1(F)CC(F)(F)[C@@](C)(c2cc(NC(=O)c3nccs3)ccc2F)N=C1N` [Compound 36, N-(3-((2R,5R)-6-amino-3,3,5-trifluoro-2,5-dimethyl-2,3,4,5-tetrahydropyridin-2-yl)-4-fluorophenyl)thiazole-2-carboxamide], 390 nM; to `C[C@@]1(F)CC(F)(F)[C@@](C)(c2cc(NC(=O)c3ccc(F)cn3)ccc2F)N=C1N` [Compound 2, N-(3-((2R,5R)-6-amino-3,3,5-trifluoro-2,5-dimethyl-2,3,4,5-tetrahydropyridin-2-yl)-4-fluorophenyl)-5-fluoropicolinamide], 210 nM. With `Cc1cc(F)cnc1C(=O)Nc1ccc(F)c([C@@]2(C)N=C(N)[C@@](C)(F)CC2(F)F)c1` [Compound 49, N-(3-((2R,5S)-6-amino-3,3,5-trifluoro-2,5-dimethyl-2,3,4,5-tetrahydropyridin-2-yl)-4-fluorophenyl)-5-fluoro-3-methylpicolinamide], the Ki is 60 nM. With `Cn1cc(Br)nc1C(=O)Nc1ccc(F)c([C@@]2(C)N=C(N)[C@](C)(F)CC2(F)F)c1` [Compound 37, N-(3-((2R,5R)-6-amino-3,3,5-trifluoro-2,5-dimethyl-2,3,4,5-tetrahydropyridin-2-yl)-4-fluorophenyl)-4-bromo-1-methyl-1H-imidazole-2-carboxamide], the Ki is 420 nM. The same measure for `Cc1ncc(C(=O)Nc2ccc(F)c([C@@]3(C)N=C(N)[C@](C)(F)CC3(F)F)c2)o1` [Compound 42, N-(3-((2R,5R)-6-amino-3,3,5-trifluoro-2,5-dimethyl-2,3,4,5-tetrahydropyridin-2-yl)-4-fluorophenyl)-2-methyloxazole-5-carboxamide trifluoroacetic acid salt]: 1500 nM; for `C[C@]1(F)CC(F)(F)[C@@](C)(c2cc(NC(=O)c3nccs3)ccc2F)N=C1N` [Compound 8, N-(3-((2R,5S)-6-amino-3,3,5-trifluoro-2,5-dimethyl-2,3,4,5-tetrahydropyridin-2-yl)-4-fluorophenyl) thiazole-2-carboxamide]: 66 nM; for `Cc1ccc(C(=O)Nc2ccc(F)c([C@@]3(C)N=C(N)[C@](C)(F)CC3(F)F)c2)o1` [Compound 41, N-(3-((2R,5R)-6-amino-3,3,5-trifluoro-2,5-dimethyl-2,3,4,5-tetrahydropyridin-2-yl)-4-fluorophenyl)-5-methylfuran-2-carboxamide]: 520 nM. With `C[C@]1(F)CC(F)(F)[C@@](C)(c2cc(NC(=O)c3ccc(C(F)(F)F)cn3)ccc2F)N=C1N` [Compound 11, N-(3-((2R,5S)-6-amino-3,3,5-trifluoro-2,5-dimethyl-2,3,4,5-tetrahydropyridin-2-yl)-4-fluorophenyl)-5-(trifluoromethyl)picolinamide], the Ki is 63 nM.

As to `Cc1cn(C)c(C(=O)Nc2ccc(F)c([C@@]3(C)N=C(N)[C@](C)(F)CC3(F)F)c2)n1` [Compound 38, N-(3-((2R,5R)-6-amino-3,3,5-trifluoro-2,5-dimethyl-2,3,4,5-tetrahydropyridin-2-yl)-4-fluorophenyl)-1,4-dimethyl-1H-imidazole-2-carboxamide], the inhibition constant Ki was 1000 nM. To `Cc1nc(C(=O)Nc2ccc(F)c([C@@]3(C)N=C(N)[C@](C)(F)CC3(F)F)c2)no1` [Compound 35, N-(3-((2R,5R)-6-amino-3,3,5-trifluoro-2,5-dimethyl-2,3,4,5-tetrahydropyridin-2-yl)-4-fluorophenyl)-5-methyl-1,2,4-oxadiazole-3-carboxamide] belongs 680 nM; to `COc1cnc(C(=O)Nc2ccc(F)c([C@@]3(C)N=C(N)[C@@](C)(F)CC3(F)F)c2)c(F)c1` [Compound 46, N-(3-((2R,5S)-6-amino-3,3,5-trifluoro-2,5-dimethyl-2,3,4,5-tetrahydropyridin-2-yl)-4-fluorophenyl)-3-fluoro-5-methoxypicolinamide], 14 nM; to `COc1cnc(C(=O)Nc2ccc(F)c([C@@]3(C)N=C(N)[C@](C)(F)CC3(F)F)c2)cn1` [Compound 25, N-(3-((2R,5R)-6-amino-3,3,5-trifluoro-2,5-dimethyl-2,3,4,5-tetrahydropyridin-2-yl)-4-fluorophenyl)-5-methoxypyrazine-2-carboxamide], 130 nM.

Usually Ki stands for the equilibrium dissociation constant of an inhibitor or competing ligand from its target.
